ChEMBL document CHEMBL1201862, “PubChem BioAssay data set” (2004)
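Step 1: Grow cells in 96-well plates. Step 2: Expose to compound for 48 hours at 5 concentrations. Step 3: Interpolate endpoints linearly; if unreached, use highest concentration. The concentration for 50% growth inhibition is given as GI50.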 Activity calls are given as the source filed them. No stated cut-off is given here; in the data, active = GI50 up to about 1.1 µM and inactive = higher.

Assays:
Assay in all cases: inhibition of tumour cell growth, NCI panel, 48 h
[1] = tested on: SK-MEL-2
[2] = tested on: CAKI-1
[3] = tested on: NCI-H522
[4] = tested on: UACC-257
[5] = tested on: SK-MEL-5
[6] = tested on: HCC 2998
[7] = tested on: SW-620
[8] = tested on: SK-MEL-28
[9] = tested on: RPMI-8226
[10] = tested on: SR
[11] = tested on: OVCAR-4
[12] = tested on: KM12
[13] = tested on: MOLT-4
[14] = tested on: K562
[15] = tested on: MDA-N
[16] = tested on: UACC-62
[17] = tested on: MDA-MB-231
[18] = tested on: OVCAR-3
[19] = tested on: Hs-578T
[20] = tested on: HOP-92
[21] = tested on: U-251
[22] = tested on: DU-145
[23] = tested on: OVCAR-8
[24] = tested on: M14
[25] = tested on: HT-29
[26] = tested on: HCT-116
[27] = tested on: SF-539
[28] = tested on: CCRF-CEM
[29] = tested on: RXF 393
[30] = tested on: TK-10
[31] = tested on: SF-268
[32] = tested on: SF-295
[33] = tested on: IGROV-1
[34] = tested on: MDA-MB-435
[35] = tested on: MCF7
[36] = tested on: BT-549
[37] = tested on: ACHN
[38] = tested on: T47D
[39] = tested on: OVCAR-5
[40] = tested on: EKVX
[41] = tested on: HL-60
[42] = tested on: COLO 205
[43] = tested on: HCT-15
[44] = tested on: A549
[45] = tested on: SK-OV-3
[46] = tested on: SN12C
[47] = tested on: NCI/ADR-RES
[48] = tested on: NCI-H23
[49] = tested on: NCI-H460
[50] = tested on: LOX IMVI
[51] = tested on: PC-3
[52] = tested on: SNB-75
[53] = tested on: Malme-3M
[54] = tested on: A498
[55] = tested on: SNB-19
[56] = tested on: HOP-62
[57] = tested on: UO-31

Measured: GI50

CCN1c2ccccc2NC(=S)c2c(-c3ccccc3)n[nH]c21
23 µM: [43]
inactive: [1] 25.3 µM | [2] 52.8 µM | [3] 21 µM | [4] 48.2 µM | [5] 20.3 µM | [6] 3.99 µM | [7] 27 µM | [8] 45.6 µM | [9] 16.1 µM | [10] 24.7 µM | [11] 36.6 µM | [12] 31.7 µM | [13] 17 µM | [14] 17.6 µM | [15] 16.4 µM | [16] 27.3 µM | [17] 19.3 µM | [18] 53.3 µM | [19] 75.5 µM | [20] 43.8 µM | [21] 20.9 µM | [22] 39.9 µM | [23] 39.4 µM | [24] 31.6 µM | [25] 42.7 µM | [26] 33.2 µM | [27] 39.4 µM | [28] 18.3 µM | [29] 27.7 µM | [30] 48.4 µM | [31] 27.4 µM | [32] 27.4 µM | [33] 34.1 µM | [34] 18.4 µM | [35] 22.4 µM | [36] 45.5 µM | [37] 37.2 µM | [38] 17.9 µM | [39] 56.4 µM | [40] 21 µM | [41] 13.6 µM | [42] 31.5 µM | [44] 24.8 µM | [45] 34 µM | [46] 43.5 µM | [47] 23.1 µM | [48] 26.5 µM | [49] 28.6 µM | [50] 30.5 µM | [51] 25.6 µM | [52] 55.7 µM

OC(c1cccnc1Cl)c1nc2ccccc2c2ccnc(Cl)c12 (configuration not stated)
inactive: [1] 4.94 µM | [2] 6.25 µM | [4] > 100 µM | [5] 3.46 µM | [7] 3.06 µM | [8] 23.7 µM | [9] 2.34 µM | [11] 27.5 µM | [12] 2.94 µM | [13] 3.67 µM | [14] 1.4 µM | [53] 6.92 µM | [16] 2.06 µM | [17] 7.82 µM | [18] 6.08 µM | [19] 2.72 µM | [54] 3.23 µM | [20] 18.7 µM | [21] 4.18 µM | [22] 23 µM | [55] 6.82 µM | [23] 9.12 µM | [24] 2.08 µM | [25] 4.6 µM | [26] 3.35 µM | [56] 2.15 µM | [27] 3.02 µM | [29] 4.12 µM | [30] 24.3 µM | [31] 6.21 µM | [32] 2.52 µM | [33] 5.02 µM | [35] 3.04 µM | [36] 5.79 µM | [37] 9.91 µM | [38] 21.4 µM | [39] 9.51 µM | [40] 19.2 µM | [41] 2.77 µM | [42] 3.38 µM | [44] 7.76 µM | [45] 8.38 µM | [46] 3.6 µM | [47] 2.88 µM | [48] 20.5 µM | [49] 4.4 µM | [57] 8.87 µM | [50] 7.01 µM | [51] 2.11 µM | [52] 15 µM
3.04 µM: [43]
active: [3] 1.05 µM | [10] 0.396 µM | [15] 0.69 µM | [34] 0.628 µM
